# Reference: patent publication US9415034B2, “Inhibitors and enhancers of uridine diphosphate-glucuronosyltransferase 2B (UGT2B)” (NATIONAL DEFENSE MEDICAL CENTER, priority 2005, dated 2016)
# Several values for one entry are separate records, joined by “and”; a condition that tells them apart may be missing. Equal entries are not always repeated. Where two headings read alike, the source gives them in different places.
# Key:
# [1] = SD rat
# [2] = SD rat, intravenous nalbuphine, with or without capillarisin, Mean ± SE, n = 6
# [3] = in vivo; cited from earlier work
# in vivo [4] = conditions: male, Sprague-Dawley, rat, serum, iv, 1 mg/Kg
# in vivo [5] = conditions: male, Sprague-Dawley, rat, serum, po
# [6] = oral nalbuphine 100 mg/Kg, with or without capillarisin 4 mg/Kg, Mean ± SE, n = 6
structure (smiles),measurement,setting,value
"Oc1ccc2c3c1O[C@H]1[C@@H](O)CC[C@@]4(O)[C@@H](C2)N(CC2CCC2)CC[C@]314 [Nalbuphine, nalbuphine]",AUC(total),[1]; [6],24356 ± 8865 ng·min/mL
same,k,[1]; [6],0.0027 ± 0.0007 min⁻¹
same,absolute bio-availability of orally administered nalbuphine,[1]; oral nalbuphine with or without capillarisin,5% and 12.759±4.64%
same,AUC(total),[2],1909 ± 330 ng·min/mL
same,CL/F,[2],50.6 ± 14.1 L/h/kg
same,k,[2],0.016 ± 0.004 min⁻¹
same,AUC(total),[2]; listed as nalbuphine,7135 ± 1218 ng·min/mL
same,half life through the excretion of liver,[3],5 h
same,AUC(0-t),in vivo [4],28.8 ng·h/mL
same,Cmax,in vivo [4],154 ± 30 ng/mL
same,MRT,in vivo [4],0.983 h
same,half-life,in vivo [4],1.28 ± 0.483 h
same,Cmax,in vivo [5]; 100 mg/Kg,79.3 ± 18 ng/mL
same,Tmax,in vivo [5]; 100 mg/Kg,1.62 h
same,AUC(0-t),in vivo [5]; 100 mg/kg,357 ng·h/mL
same,CL/F,in vivo [5]; 100 mg/kg,350 ± 62.9 L/h/kg
same,Cmax,in vivo [5]; 100 mg/kg,79 ± 18 ng/mL
same,MRT,in vivo [5]; 100 mg/kg,8.27 h
same,half-life,in vivo [5]; 100 mg/kg,5.53 ± 1.03 h
